For 3 molecules, remaining binding results are on record in US12275731B2, “Azaindole inhibitors of wild-type and mutant forms of LRRK2” (DANA-FARBER CANCER INSTITUTE, INC., priority 2018, dated 2025).

Holding throughout (assay): KinomeScan profiling
Format in all cases: binding

One assay has as its target T1, ALK(L1196M) (Homo sapiens, UniProt Q9UM73, L1196M).
T1 construct: purchased KinomeScan®
The following applies: read-out: % control. An outline of the steps:
(§1)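 Test agents were profiled at a single concentration of 1 μM (DMSO vehicle) on a near-complete set of 468 kinases. Signal is reported relative to vehicle (100%) and a fully displacing control (0%).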

For a further assay, the target named is T2, EPHB6 (Homo sapiens, UniProt O15197).
T2 sequence (O15197 32-1021): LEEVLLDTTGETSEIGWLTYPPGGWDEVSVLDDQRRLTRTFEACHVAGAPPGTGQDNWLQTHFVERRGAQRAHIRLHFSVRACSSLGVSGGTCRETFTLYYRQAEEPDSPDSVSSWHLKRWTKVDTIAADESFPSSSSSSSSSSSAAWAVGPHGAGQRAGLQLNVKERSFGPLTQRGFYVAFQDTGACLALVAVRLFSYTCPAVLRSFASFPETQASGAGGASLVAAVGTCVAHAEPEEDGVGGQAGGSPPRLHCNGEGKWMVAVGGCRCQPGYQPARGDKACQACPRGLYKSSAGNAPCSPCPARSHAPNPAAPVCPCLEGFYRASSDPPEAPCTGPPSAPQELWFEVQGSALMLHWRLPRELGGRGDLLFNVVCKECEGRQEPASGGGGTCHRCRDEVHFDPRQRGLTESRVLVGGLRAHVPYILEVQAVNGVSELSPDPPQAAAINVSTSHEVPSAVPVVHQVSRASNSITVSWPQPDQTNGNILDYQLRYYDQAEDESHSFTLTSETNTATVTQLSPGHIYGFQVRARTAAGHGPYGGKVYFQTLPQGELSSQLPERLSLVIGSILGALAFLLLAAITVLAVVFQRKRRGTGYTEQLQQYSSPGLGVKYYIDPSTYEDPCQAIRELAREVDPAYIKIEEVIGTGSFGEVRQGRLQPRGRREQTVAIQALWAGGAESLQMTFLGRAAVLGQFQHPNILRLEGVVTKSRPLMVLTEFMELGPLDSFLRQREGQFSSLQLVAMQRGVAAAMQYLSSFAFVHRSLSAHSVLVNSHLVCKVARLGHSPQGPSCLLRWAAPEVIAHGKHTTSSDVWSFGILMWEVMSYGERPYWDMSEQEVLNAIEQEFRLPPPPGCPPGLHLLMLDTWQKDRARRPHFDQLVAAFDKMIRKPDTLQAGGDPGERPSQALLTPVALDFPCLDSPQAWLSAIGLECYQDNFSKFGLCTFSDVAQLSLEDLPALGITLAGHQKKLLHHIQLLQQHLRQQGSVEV
The following applies: EPHB6, 1 μM; read-out: % control. An outline of the steps:
as §1

The next assay has as its target T3, FLT3(N841I) (Homo sapiens, UniProt P36888, N841I).
T3 sequence (P36888 27-993 N841I): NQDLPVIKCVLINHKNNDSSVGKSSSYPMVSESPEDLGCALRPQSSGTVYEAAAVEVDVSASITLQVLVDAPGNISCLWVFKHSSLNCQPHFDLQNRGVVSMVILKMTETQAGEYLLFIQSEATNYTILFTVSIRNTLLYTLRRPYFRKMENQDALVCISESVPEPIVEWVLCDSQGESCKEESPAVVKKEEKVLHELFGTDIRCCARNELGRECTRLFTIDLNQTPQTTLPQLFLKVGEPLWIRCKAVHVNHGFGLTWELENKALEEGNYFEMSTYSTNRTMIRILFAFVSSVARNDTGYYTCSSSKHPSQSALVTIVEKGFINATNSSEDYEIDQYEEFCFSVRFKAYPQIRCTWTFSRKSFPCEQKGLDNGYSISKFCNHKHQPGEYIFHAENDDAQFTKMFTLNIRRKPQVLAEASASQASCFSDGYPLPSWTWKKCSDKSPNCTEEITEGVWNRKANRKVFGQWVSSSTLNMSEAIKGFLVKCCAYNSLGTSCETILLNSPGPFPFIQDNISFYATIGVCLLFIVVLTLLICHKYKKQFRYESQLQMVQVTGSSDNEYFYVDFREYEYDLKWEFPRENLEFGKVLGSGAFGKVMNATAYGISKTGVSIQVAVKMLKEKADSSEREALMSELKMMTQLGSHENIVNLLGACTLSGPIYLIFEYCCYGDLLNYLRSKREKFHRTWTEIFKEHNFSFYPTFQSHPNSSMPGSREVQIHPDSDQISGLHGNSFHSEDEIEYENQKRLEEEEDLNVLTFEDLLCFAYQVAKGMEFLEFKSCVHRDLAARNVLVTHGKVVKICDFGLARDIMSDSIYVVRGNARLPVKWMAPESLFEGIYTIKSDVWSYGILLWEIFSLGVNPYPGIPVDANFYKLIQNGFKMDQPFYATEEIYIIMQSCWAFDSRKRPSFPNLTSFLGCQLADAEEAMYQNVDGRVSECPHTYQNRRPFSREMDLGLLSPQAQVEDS
The following applies: read-out: % control. An outline of the steps:
as §1

Another assay concerns the target T4, KIT(V559D, V654A) (Homo sapiens, UniProt P10721, V559D/V654A).
T4 construct: purchased KinomeScan®
Particulars: read-out: % control. The essentials: as §1

A further assay has as its target NDR1 (Homo sapiens, UniProt Q15208). The following applies: NDR1, 1 μM; read-out: % control. The essentials:
as §1

Another assay has as its target VEGFR2 (Homo sapiens, UniProt P35968). Particulars: VEGFR2, 1 μM; read-out: % control. The essentials: as §1

T4 sequence (P10721 26-976 V559D/V654A): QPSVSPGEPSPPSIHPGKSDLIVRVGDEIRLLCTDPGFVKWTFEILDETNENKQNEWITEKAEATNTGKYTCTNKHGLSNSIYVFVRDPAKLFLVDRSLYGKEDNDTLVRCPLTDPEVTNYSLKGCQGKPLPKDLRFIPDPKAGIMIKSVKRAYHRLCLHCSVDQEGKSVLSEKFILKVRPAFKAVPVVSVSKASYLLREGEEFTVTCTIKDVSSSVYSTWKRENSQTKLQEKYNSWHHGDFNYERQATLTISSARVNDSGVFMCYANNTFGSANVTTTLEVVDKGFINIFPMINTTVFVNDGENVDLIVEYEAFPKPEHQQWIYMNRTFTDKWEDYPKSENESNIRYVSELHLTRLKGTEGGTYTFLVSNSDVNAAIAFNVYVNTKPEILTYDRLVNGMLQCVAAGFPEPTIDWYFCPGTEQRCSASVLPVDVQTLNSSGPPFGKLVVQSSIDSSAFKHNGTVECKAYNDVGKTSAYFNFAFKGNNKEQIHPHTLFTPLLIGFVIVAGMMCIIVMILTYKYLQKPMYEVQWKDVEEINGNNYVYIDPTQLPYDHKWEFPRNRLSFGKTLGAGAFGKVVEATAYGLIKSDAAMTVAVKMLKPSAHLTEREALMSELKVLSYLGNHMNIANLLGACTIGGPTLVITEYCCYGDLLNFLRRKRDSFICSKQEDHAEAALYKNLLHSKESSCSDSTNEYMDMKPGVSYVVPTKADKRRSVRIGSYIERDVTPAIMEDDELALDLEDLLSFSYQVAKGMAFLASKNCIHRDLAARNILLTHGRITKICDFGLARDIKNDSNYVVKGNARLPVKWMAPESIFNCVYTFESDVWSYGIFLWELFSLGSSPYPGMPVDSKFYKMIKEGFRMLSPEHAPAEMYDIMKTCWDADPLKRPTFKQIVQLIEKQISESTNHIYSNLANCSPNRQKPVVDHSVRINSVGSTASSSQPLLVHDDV
Sequence of NDR1 (Q15208 whole entry): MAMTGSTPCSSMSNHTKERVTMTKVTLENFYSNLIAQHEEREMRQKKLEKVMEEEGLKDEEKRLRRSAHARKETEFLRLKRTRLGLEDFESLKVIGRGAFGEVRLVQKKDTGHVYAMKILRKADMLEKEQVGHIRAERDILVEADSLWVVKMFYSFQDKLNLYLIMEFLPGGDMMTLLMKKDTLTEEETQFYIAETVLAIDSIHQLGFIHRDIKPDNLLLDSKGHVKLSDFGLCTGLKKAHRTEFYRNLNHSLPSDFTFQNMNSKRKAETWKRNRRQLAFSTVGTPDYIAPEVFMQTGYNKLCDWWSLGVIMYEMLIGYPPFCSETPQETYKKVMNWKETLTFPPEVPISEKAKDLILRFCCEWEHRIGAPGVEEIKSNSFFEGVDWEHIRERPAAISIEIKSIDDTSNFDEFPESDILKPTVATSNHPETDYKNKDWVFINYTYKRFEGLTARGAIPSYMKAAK
Sequence of VEGFR2 (P35968 20-1356): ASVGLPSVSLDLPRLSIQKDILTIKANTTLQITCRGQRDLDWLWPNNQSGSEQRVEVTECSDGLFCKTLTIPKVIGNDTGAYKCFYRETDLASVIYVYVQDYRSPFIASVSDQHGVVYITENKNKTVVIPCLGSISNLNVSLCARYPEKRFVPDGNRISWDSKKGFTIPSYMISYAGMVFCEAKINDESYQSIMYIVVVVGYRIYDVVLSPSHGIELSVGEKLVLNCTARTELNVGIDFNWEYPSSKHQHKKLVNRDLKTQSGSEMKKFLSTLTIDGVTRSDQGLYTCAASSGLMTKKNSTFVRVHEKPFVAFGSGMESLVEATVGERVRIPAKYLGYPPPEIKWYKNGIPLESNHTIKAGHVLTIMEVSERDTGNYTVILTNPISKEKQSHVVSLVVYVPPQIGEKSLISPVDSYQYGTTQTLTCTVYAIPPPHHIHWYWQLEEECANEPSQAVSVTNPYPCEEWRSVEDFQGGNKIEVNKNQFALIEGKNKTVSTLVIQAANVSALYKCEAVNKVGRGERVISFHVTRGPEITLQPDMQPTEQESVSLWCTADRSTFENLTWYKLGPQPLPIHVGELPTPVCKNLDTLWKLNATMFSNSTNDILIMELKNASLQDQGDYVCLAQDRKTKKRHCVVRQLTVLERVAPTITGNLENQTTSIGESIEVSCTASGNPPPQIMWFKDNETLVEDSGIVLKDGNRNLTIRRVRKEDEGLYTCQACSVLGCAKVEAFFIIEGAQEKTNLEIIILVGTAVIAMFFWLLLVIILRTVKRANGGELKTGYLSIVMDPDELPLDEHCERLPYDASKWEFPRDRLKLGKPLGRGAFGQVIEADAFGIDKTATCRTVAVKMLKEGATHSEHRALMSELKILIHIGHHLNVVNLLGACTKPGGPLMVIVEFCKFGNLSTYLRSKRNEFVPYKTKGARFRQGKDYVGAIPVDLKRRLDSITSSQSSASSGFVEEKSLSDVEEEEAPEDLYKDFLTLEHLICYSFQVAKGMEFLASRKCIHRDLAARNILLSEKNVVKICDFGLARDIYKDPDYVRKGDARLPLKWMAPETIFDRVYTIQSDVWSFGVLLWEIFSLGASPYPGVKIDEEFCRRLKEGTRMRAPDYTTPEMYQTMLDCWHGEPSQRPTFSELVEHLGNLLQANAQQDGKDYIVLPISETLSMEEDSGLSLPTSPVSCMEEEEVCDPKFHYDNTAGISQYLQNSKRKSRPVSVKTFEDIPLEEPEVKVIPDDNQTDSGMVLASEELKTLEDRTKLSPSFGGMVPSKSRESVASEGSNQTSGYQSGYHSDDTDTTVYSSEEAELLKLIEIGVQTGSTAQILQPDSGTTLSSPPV
T1 sequence (Q9UM73 19-1620 L1196M): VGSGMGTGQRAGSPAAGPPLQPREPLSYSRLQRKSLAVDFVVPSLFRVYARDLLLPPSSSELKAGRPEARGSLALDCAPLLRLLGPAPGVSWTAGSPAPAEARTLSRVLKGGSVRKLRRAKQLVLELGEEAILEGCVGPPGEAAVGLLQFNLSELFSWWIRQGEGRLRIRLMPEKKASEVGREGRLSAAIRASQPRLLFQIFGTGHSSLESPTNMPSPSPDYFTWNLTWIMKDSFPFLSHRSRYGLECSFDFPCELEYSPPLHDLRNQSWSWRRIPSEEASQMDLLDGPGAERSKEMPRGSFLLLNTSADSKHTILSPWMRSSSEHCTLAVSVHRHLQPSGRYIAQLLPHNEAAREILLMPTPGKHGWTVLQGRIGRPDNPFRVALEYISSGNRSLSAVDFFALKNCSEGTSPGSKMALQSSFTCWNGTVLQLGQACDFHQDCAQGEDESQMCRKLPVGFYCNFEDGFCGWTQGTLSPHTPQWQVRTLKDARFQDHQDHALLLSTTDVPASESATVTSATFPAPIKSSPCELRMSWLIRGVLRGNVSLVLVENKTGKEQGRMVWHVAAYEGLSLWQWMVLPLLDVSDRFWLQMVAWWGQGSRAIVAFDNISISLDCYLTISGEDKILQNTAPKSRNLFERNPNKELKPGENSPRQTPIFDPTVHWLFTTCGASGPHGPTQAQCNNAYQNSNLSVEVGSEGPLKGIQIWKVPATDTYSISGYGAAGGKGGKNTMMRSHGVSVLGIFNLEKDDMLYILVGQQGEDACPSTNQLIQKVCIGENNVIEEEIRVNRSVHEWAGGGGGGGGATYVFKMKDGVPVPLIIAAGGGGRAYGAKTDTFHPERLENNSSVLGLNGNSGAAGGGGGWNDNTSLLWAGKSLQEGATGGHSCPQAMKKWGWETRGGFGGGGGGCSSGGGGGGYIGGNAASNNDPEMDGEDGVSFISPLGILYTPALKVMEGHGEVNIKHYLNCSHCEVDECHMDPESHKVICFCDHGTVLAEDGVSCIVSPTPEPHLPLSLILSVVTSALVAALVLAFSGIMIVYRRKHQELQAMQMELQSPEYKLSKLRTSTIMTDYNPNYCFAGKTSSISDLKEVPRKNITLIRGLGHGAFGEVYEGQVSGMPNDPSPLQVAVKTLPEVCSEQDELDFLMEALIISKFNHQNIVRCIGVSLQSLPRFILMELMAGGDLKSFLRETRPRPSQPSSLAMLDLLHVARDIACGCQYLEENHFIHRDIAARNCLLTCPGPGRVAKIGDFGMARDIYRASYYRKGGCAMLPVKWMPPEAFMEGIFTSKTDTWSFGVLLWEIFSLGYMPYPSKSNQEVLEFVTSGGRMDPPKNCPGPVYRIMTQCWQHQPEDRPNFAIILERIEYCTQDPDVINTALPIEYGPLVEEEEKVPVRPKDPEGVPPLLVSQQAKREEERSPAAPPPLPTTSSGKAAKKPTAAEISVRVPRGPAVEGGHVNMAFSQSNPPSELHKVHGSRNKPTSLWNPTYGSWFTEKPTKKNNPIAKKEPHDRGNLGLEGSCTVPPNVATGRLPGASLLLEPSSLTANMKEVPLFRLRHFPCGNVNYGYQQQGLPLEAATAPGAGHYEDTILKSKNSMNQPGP

Turning to `CNc1c(-c2cnn([C@H]3CCN(C(C)=O)C[C@@H]3F)c2)cnc2[nH]cc(Cl)c12` [Compound 77, 1-((3S,4S)-4-(4-(3-chloro-4-(methylamino)-1H-pyrrolo[2,3-b]pyridin-5-yl)-1H-pyrazol-1-yl)-3-fluoropiperidin-1-yl)ethan-1-one], the remaining binding at 1 µM came out at 91% at ALK(L1196M); 55% at EPHB6; 1% at FLT3(N841I); 53% at KIT(V559D, V654A); 74% at NDR1; 2.8% on VEGFR2.
In the case of `CNc1c(-c2ccc(C(=O)N3CCC(N4CCOCC4)CC3)cc2)cnc2[nH]cc(Cl)c12` [Compound 96, (4-(3-chloro-4-(methylamino)-1H-pyrrolo[2,3-b]pyridin-5-yl)phenyl)(4-morpholinopiperidin-1-yl)methanone], the remaining binding at 1 µM stood at 51% on ALK(L1196M); 99% on EPHB6; 14% on FLT3(N841I); 94% at KIT(V559D, V654A); 69% at NDR1; 4.2% at VEGFR2.
Regarding `O=C(c1ccc(-c2cnc3[nH]cc(Cl)c3c2NC2CCCC2)cc1)N1CCC(N2CCOCC2)CC1` [Compound 101, (4-(3-chloro-4-(cyclopentylamino)-1H-pyrrolo[2,3-b]pyridin-5-yl)phenyl)(4-morpholinopiperidin-1-yl)methanone], the remaining binding at 1 µM is 94% on ALK(L1196M); 100% at EPHB6; 2.6% at FLT3(N841I); 100% on KIT(V559D, V654A); 84% at NDR1; 33% on VEGFR2.
